Assay results from US20250049026A1, “BIOCIDAL COMPOSITIONS WITH HYDRONIUM ION SOURCES FOR BIOFILM CONTROL” (ECOLAB USA INC., priority 2020, published 2025).
Marks after values point to notes of the source that are not given here.

System: Pseudomonas aeruginosa (ATCC 15442) biofilm
Assay: Efficacy against biofilm, CDC Biofilm Reactor and Single Tube Method (ASTM E3161-18, ASTM E2871-19)
Format: cell-based
Settings: for Average Log Reduction: 10 min exposure
Experimental: The efficacy against biofilm was performed as described in the standard test methods ASTM E3161-18 (Standard Practice for Preparing a Pseudomonas aeruginosa or Staphylococcus aureus Biofilm using the CDC Biofilm Reactor) and ASTM E2871-19 (Standard Test Method for Determining Disinfectant Efficacy Against Biofilm Grown in the CDC Biofilm Reactor Using the Single Tube Method). A Pseudomonas aeruginosa (ATCC 15442) biofilm was the organism used for determination of composition efficacy against biofilm on hard non-porous surfaces. Biofilm for composition efficacy was generated as outlined in ASTM E3161-18. A 10 uL sample of a thawed frozen stock culture was used to inoculate 10 mL of sterile 100 mg/L Tryptic Soy Broth (TSB) which was then allowed to incubate for 24±2 hours at 35±2° C. Following growth, a 1 mL sample of this initial culture was used to inoculate a CDC Biofilm Reactor containing borosilicate glass coupons and 500 mL of sterile 300 mg/L TSB. The reactor system was allowed to incubate at room temperature (i.e. 21±2° C.) for 24±2 hours with a baffle rotational speed of 125±5 RPM under Batch Phase as directed in ASTM E3161-18. Following Batch Phase growth, Continuous Flow Phase growth was initiated by continuous pumping of 100 mg/L TSB into the reactor system at an appropriate flow rate to ensure the test organism residence time of 30±2 minutes. The reactor system was allowed to incubate at room temperature (i.e. 21±2° C.) for 24±2 hours with a baffle rotational speed of 125±5 RPM under Continuous Flow Phase as directed in ASTM E3161-18. Following completion of the growth, biofilm test carriers were removed from the CDC Biofilm Reactor, rinsed in sterile buffer to remove any non-adhered cells and individual carriers were placed into sterile 50 mL conical tubes for composition treatment. Determination of compositional efficacy against Pseudomonas aeruginosa biofilm was performed as outlined in ASTM E2871-19. A 4 mL sample of each composition (or sterile buffer for control carriers) was pipetted into each corresponding tube containing a test carrier. Triplicate test carriers were analyzed per composition or control. Test and control carriers were allowed to expose for 10 minutes at room temperature (i.e. 21±2° C.). Following exposure, each carrier was appropriately neutralized with 36 mL of Neutralizing Broth. Neutralized carriers were vortex mixed and sonicated to remove/disaggregate the biofilm from the carrier surface as outlined in ASTM E2871-19. Disaggregated biofilm samples were serially diluted in sterile buffer and spread plated onto appropriate agar for determination of plate counts. Log reductions for each composition were determined by comparing the calculated average Log10 from the set of recovered control carriers to the calculated average Log10 from each set of recovered composition carriers. In addition to carrier control determination, an appropriate Neutralization Confirmation Control was performed for each composition to ensure that the Neutralizing Broth chosen appropriately neutralized the test solution.
The various combinations of biocides and hydronium ion (all from sulfuric acid) were evaluated at the use concentration (ppm biocide) pH and moles of hydronium in the use concentration as set forth in Table 2.

[1] = active 100 ppm, pH 2.15, hydronium ion 0.0071 M (sulfuric acid)
[2] = active 100 ppm, pH 2.50, hydronium ion 0.0032 M (sulfuric acid)
[3] = active 100 ppm, pH 3.00, hydronium ion 0.001 M (sulfuric acid)

Compound: CCCCCCCC(=O)O [Octanoic acid]
- Average Log Reduction [1]: 4.28 log
- Average Log Reduction [2]: 7.59 log
- Average Log Reduction [3]: 2.19 log
- Average Log Reduction (active 100 ppm, pH 6.43, hydronium ion 0.0000 M): 2.07 log
- Average Log Reduction (active 200 ppm, pH 6.43, hydronium ion 0.0000 M): 2.15 log
- Average Log Reduction (active 300 ppm, pH 6.43, hydronium ion 0.0000 M): 2.15 log
- Average Log Reduction (active 400 ppm, pH 6.43, hydronium ion 0.0000 M): 2.15 log

Compound: CC(=O)OO [POAA, Peroxyacetic acid]
- micro efficacy (220 ppm, without the hydronium ion): fails to provide sufficient micro efficacy
- Average Log Reduction (active 110 ppm, pH 2.29, hydronium ion 0.0051 M (sulfuric acid)): 5.94 log
- Average Log Reduction (active 220 ppm, pH 2.00, hydronium ion 0.01 M (sulfuric acid)): 4.45* log
- Average Log Reduction (active 220 ppm, pH 2.29, hydronium ion 0.0051 M (sulfuric acid)): 8.70 log
- Average Log Reduction (active 220 ppm, pH 2.30, hydronium ion 0.0050 M (sulfuric acid)): 2.42 log
- Average Log Reduction (active 220 ppm, pH 2.45, hydronium ion 0.0035 M (sulfuric acid)): 2.11 log
- Average Log Reduction (active 220 ppm, pH 2.50, hydronium ion 0.0032 M (sulfuric acid)): 2.15 log
- Average Log Reduction (active 220 ppm, pH 2.98, hydronium ion 0.001 M (sulfuric acid)): 2.15 log
- Average Log Reduction (active 220 ppm, pH 3.46, hydronium ion 0.00035 M (sulfuric acid)): 2.15 log
- Average Log Reduction (active 220 ppm, pH 4.20, hydronium ion 0.000063 M [No hydronium ion source], room temperature): 2.15 log
- Average Log Reduction (active 320 ppm, pH 3.45, hydronium ion 0.00035 M (sulfuric acid)): 2.41 log
- Average Log Reduction (active 420 ppm, pH 3.46, hydronium ion 0.00035 M (sulfuric acid)): 2.41 log
- Average Log Reduction (active 520 ppm, pH 3.44, hydronium ion 0.00035 M (sulfuric acid)): 2.41 log

Compound: CCCCCCCC(=O)OO [POOA, Peroxyoctanoic acid]
- Average Log Reduction [1]: 8.43 log
- Average Log Reduction [2]: 7.24 log
- Average Log Reduction [3]: 2.19 log
- Average Log Reduction (active 100 ppm, pH 5.45, hydronium ion 0.0000 M): 1.95 log

Compound: Linear alkylbenzene sulfonate [LAS]
- Average Log Reduction (active 1000 ppm, pH 2.15, hydronium ion 0.0071 M (sulfuric acid)): 5.74 log
- Average Log Reduction (active 1000 ppm, pH 3.02, hydronium ion 0.00095 M (sulfuric acid)): 2.19 log
- Average Log Reduction (active 1000 ppm, pH 7.48, hydronium ion 0.0000 M): 2.07 log
- Average Log Reduction (active 2000 ppm, pH 7.48, hydronium ion 0.0000 M): 2.41 log
- Average Log Reduction (active 3000 ppm, pH 7.46, hydronium ion 0.0000 M): 2.41 log
- Average Log Reduction (active 4000 ppm, pH 7.48, hydronium ion 0.0000 M): 2.41 log
